Test results: patent publication US4795743A, “2'-deamino-2'-hydroxyistamycin Bo derivatives of low toxicity” (Zaidan Hojin Biseibutsu Kagaku Kenkyu Kai, priority 1986, dated 1989)
≈ marks a conversion by molar mass, not a printed value. Read-outs that look alike come from different tables or passages of the source.

Columns and labels:
[1] = tested on: Staphylococcus aureus 209P; assay: Antibacterial spectrum, standard serial dilution method of Japan Society of Chemotherapy; assay type: cell-based; conditions: S. aureus 209P, Muller-Hinton medium, 37° C., 18 hours, read-out: Minimum Growth Inhibitory Concentration
[2] = tested on: Staphylococcus aureus Smith; assay: Antibacterial spectrum, standard serial dilution method; assay type: cell-based; conditions: read-out: Minimum Growth Inhibitory Concentration
[3] = tested on: Staphylococcus aureus Ap 01; assay: as above; assay type: cell-based; conditions: read-out: Minimum Growth Inhibitory Concentration
[4] = tested on: Staphylococcus epidermidis 109; assay: as above; assay type: cell-based; conditions: read-out: Minimum Growth Inhibitory Concentration
[5] = tested on: Micrococcus flavus FDA 16; assay: as above; assay type: cell-based; conditions: read-out: Minimum Growth Inhibitory Concentration
[6] = tested on: Bacillus subtilis NRRL B-558; assay: as above; assay type: cell-based; conditions: NRRLB558; Bacillus subtilis NRRL B-558; Muller-Hinton medium, 37° C., 18 hours; read-out: Minimum Growth Inhibitory Concentration
[7] = tested on: Bacillus cereus ATCC 1-702; assay: as above; assay type: cell-based; conditions: read-out: Minimum Growth Inhibitory Concentration
[8] = tested on: Mycobacterium smegmatis ATCC 607; assay: as above; assay type: cell-based; conditions: Mycolicibacterium smegmatis, read-out: Minimum Growth Inhibitory Concentration
[9] = tested on: Escherichia coli K-12; assay: as above; assay type: cell-based; conditions: read-out: Minimum Growth Inhibitory Concentration
[10] = tested on: Escherichia coli K-12 R388; assay: as above; assay type: cell-based; conditions: K12R388, 18 h, read-out: Minimum Growth Inhibitory Concentration
[11] = tested on: Escherichia coli K-12 J5 R11-2; assay: as above; assay type: cell-based; conditions: K12J5R112, 18 h, read-out: Minimum Growth Inhibitory Concentration
[12] = tested on: Escherichia coli K-12 ML1629; assay: as above; assay type: cell-based; conditions: K12ML1629, E. coli K-12 ML1629, Muller-Hinton medium, 37° C., 18 hours, read-out: Minimum Growth Inhibitory Concentration
[13] = tested on: Escherichia coli K-12 ML1410; assay: as above; assay type: cell-based; conditions: K12ML1410, 18 h, read-out: Minimum Growth Inhibitory Concentration
[14] = tested on: Escherichia coli JR225; assay: as above; assay type: cell-based; conditions: JR225, 18 h, read-out: Minimum Growth Inhibitory Concentration
[15] = tested on: Klebsiella Pneumoniae PCI 602; assay: as above; assay type: cell-based; conditions: read-out: Minimum Growth Inhibitory Concentration
[16] = tested on: Klebsiella pneumoniae 22 = 3038; assay: as above; assay type: cell-based; conditions: Klebsiella pneumoniae, 18 h, read-out: Minimum Growth Inhibitory Concentration
[17] = tested on: Shigella dysernteriae JS11910; assay: as above; assay type: cell-based; conditions: Muller-Hinton medium, 37° C., 18 hours, read-out: Minimum Growth Inhibitory Concentration
[18] = tested on: Salmonella enteritidis 1891; assay: as above; assay type: cell-based; conditions: Salmonella enterica, Muller-Hinton medium, 37° C., 18 hours, read-out: Minimum Growth Inhibitory Concentration
[19] = tested on: Proteus vulgaris OX19; assay: as above; assay type: cell-based; conditions: read-out: Minimum Growth Inhibitory Concentration
[20] = tested on: Proteus rettgeri GN311; assay: as above; assay type: cell-based; conditions: Providencia rettgeri, read-out: Minimum Growth Inhibitory Concentration
[21] = tested on: Serratia marcescens; assay: as above; assay type: cell-based; conditions: read-out: Minimum Growth Inhibitory Concentration
[22] = tested on: Serratia sp. SOU; assay: as above; assay type: cell-based; conditions: read-out: Minimum Growth Inhibitory Concentration
[23] = tested on: Serratia sp. 4; assay: as above; assay type: cell-based; conditions: Muller-Hinton medium, 37° C., 18 hours, read-out: Minimum Growth Inhibitory Concentration
[24] = tested on: Providencia sp. Pv16; assay: as above; assay type: cell-based; conditions: read-out: Minimum Growth Inhibitory Concentration
[25] = tested on: Pseudomonas aeruguinosa A3; assay: as above; assay type: cell-based, Pseudomonas aeruginosa; conditions: read-out: Minimum Growth Inhibitory Concentration
[26] = tested on: Pseudomonas aeruguinosa No.12; assay: as above; assay type: cell-based, Pseudomonas aeruginosa; conditions: Muller-Hinton medium, 37° C., 18 hours, read-out: Minimum Growth Inhibitory Concentration
[27] = tested on: Pseudomonas aeruguinosa H11; assay: as above; assay type: cell-based, Pseudomonas aeruginosa; conditions: Muller-Hinton medium, 37° C., 18 hours, read-out: Minimum Growth Inhibitory Concentration
[28] = tested on: Pseudomonas aeruguinosa TI-13; assay: as above; assay type: cell-based, Pseudomonas aeruginosa; conditions: read-out: Minimum Growth Inhibitory Concentration
[29] = tested on: Pseudomonas aeruguinosa GN315; assay: as above; assay type: cell-based, Pseudomonas aeruginosa; conditions: read-out: Minimum Growth Inhibitory Concentration
[30] = tested on: Pseudomonas aeruguinosa B-13; assay: as above; assay type: cell-based, Pseudomonas aeruginosa; conditions: B13, Muller-Hinton medium, 37° C., 18 hours, read-out: Minimum Growth Inhibitory Concentration
[31] = tested on: Pseudomonas aeruguinosa PST1; assay: as above; assay type: cell-based, Pseudomonas aeruginosa; conditions: Muller-Hinton medium, 37° C., 18 hours, read-out: Minimum Growth Inhibitory Concentration
[32] = tested on: Pseudomonas aeruguinosa ROS 134/PU21; assay: as above; assay type: cell-based, Pseudomonas aeruginosa; conditions: ROS134/PU21, 18 h, read-out: Minimum Growth Inhibitory Concentration
[33] = tested on: Pseudomonas maltophilia GN907; assay: as above; assay type: cell-based; conditions: Stenotrophomonas maltophilia, Muller-Hinton medium, 37° C., 18 hours, read-out: Minimum Growth Inhibitory Concentration
[34] = Staphylococcus epidermidis, 109, 18 h
[35] = Serratia sp. SOU, Muller-Hinton medium, 37° C., 18 hours
[36] = Providencia sp. Pv16, Muller-Hinton medium, 37° C., 18 hours
[37] = Pseudomonas aeruguinosa A3, Muller-Hinton medium, 37° C., 18 hours
[38] = S. aureus Smith, Muller-Hinton medium, 37° C., 18 hours
[39] = FDA16, Micrococcus flavus FDA 16, Muller-Hinton medium, 37° C., 18 hours
[40] = ATCC1, Bacillus cereus ATCC 1-702, Muller-Hinton medium, 37° C., 18 hours
[41] = ATCC607, Mycobacterium smegmatis ATCC 607, Muller-Hinton medium, 37° C., 18 hours
[42] = K12, E. coli K-12, Muller-Hinton medium, 37° C., 18 hours
[43] = Proteus vulgaris OX19, Muller-Hinton medium, 37° C., 18 hours
[44] = TI13, Pseudomonas aeruguinosa TI-13, Muller-Hinton medium, 37° C., 18 hours
[45] = Pseudomonas aeruguinosa GN315, Muller-Hinton medium, 37° C., 18 hours

Compound	MIC [1]	MIC ([3]; AP01, 18 h)	MIC [4, 34]	MIC [6]	MIC [10]	MIC [11]	MIC [12]	MIC [13]	MIC [14]	MIC ([15]; Klebsiella pneumoniae, 18 h)	MIC [16]	MIC [17]	MIC [18]	MIC [23]	MIC [26]	MIC [27]	MIC [30]	MIC [31]	MIC [32]	MIC [33]	further results
CNCC1CCC(O)C(OC2C(N)CC(O)C(N(C)C(=O)CN)C2O)O1 (stereo not drawn) [Compound No. 2, 2'-Deamino-2'-hydroxy-3-O-demethylistamycin B]	3.13 µg/mL (≈ 8.31 µM)	6.25 µg/mL (≈ 16.6 µM)	1.56 µg/mL (≈ 4.14 µM)	3.13 µg/mL (≈ 8.31 µM)	3.13 µg/mL (≈ 8.31 µM)	1.56 µg/mL (≈ 4.14 µM)	6.25 µg/mL (≈ 16.6 µM)	6.25 µg/mL (≈ 16.6 µM)	1.56 µg/mL (≈ 4.14 µM)	6.25 µg/mL (≈ 16.6 µM)	6.25 µg/mL (≈ 16.6 µM)	12.5 µg/mL (≈ 33.2 µM)	12.5 µg/mL (≈ 33.2 µM)	25 µg/mL (≈ 66.4 µM)	25 µg/mL (≈ 66.4 µM)	25 µg/mL (≈ 66.4 µM)	25 µg/mL (≈ 66.4 µM)	25 µg/mL (≈ 66.4 µM)	50 µg/mL (≈ 133 µM)	> 100 µg/mL	MIC ([2]; 18 h): 1.56 µg/mL (≈ 4.14 µM); MIC ([5]; Micrococcus flavus, FDA16, 18 h): 12.5 µg/mL (≈ 33.2 µM); MIC ([7]; Bacillus cereus, ATCC1, 18 h): 6.25 µg/mL (≈ 16.6 µM); MIC ([8]; ATCC607, 18 h): 6.25 µg/mL (≈ 16.6 µM); MIC ([9]; K12, 18 h): 1.56 µg/mL (≈ 4.14 µM); MIC ([19]; Proteus vulgaris, OX19, 18 h): 1.56 µg/mL (≈ 4.14 µM); MIC ([20]; GN311, 18 h): 1.56 µg/mL (≈ 4.14 µM); MIC ([21]; 18 h): 12.5 µg/mL (≈ 33.2 µM); MIC [22, 35]: 3.13 µg/mL (≈ 8.31 µM); MIC [24, 36]: 3.13 µg/mL (≈ 8.31 µM); MIC [25, 37]: 0.39 µg/mL (≈ 1.04 µM); MIC ([28]; Pseudomonas, TI13, 18 h): 12.5 µg/mL (≈ 33.2 µM); MIC ([29]; Pseudomonas, GN315, 18 h): 12.5 µg/mL (≈ 33.2 µM)
CNCC1CCC(O)C(OC2C(N)CC(OC)C(N(C)C(=O)CN)C2O)O1 (stereo not drawn) [Compound No. 1, 2'-Deamino-2'-hydroxyistamycin B]	3.13 µg/mL (≈ 8.02 µM)	6.25 µg/mL (≈ 16 µM)	6.25 µg/mL (≈ 16 µM)	3.13 µg/mL (≈ 8.02 µM)	3.13 µg/mL (≈ 8.02 µM)	1.56 µg/mL (≈ 4 µM)	6.25 µg/mL (≈ 16 µM)	6.25 µg/mL (≈ 16 µM)	3.13 µg/mL (≈ 8.02 µM)	6.25 µg/mL (≈ 16 µM)	12.5 µg/mL (≈ 32 µM)	6.25 µg/mL (≈ 16 µM)	6.25 µg/mL (≈ 16 µM)	> 100 µg/mL	100 µg/mL (≈ 256 µM)	> 100 µg/mL	> 100 µg/mL	100 µg/mL (≈ 256 µM)	> 100 µg/mL	> 100 µg/mL	MIC [2, 38]: 3.13 µg/mL (≈ 8.02 µM); MIC [5, 39]: 25 µg/mL (≈ 64 µM); MIC [7, 40]: 50 µg/mL (≈ 128 µM); MIC [8, 41]: 25 µg/mL (≈ 64 µM); MIC [9, 42]: 3.13 µg/mL (≈ 8.02 µM); MIC [19, 43]: 3.13 µg/mL (≈ 8.02 µM); MIC ([20]; GN311, 18 h): 6.25 µg/mL (≈ 16 µM); MIC ([21]; 18 h): 12.5 µg/mL (≈ 32 µM); MIC ([22]; Serratia, 18 h): 6.25 µg/mL (≈ 16 µM); MIC ([24]; Providencia, SP.PV16, 18 h): 6.25 µg/mL (≈ 16 µM); MIC ([25]; Pseudomonas, A3, 18 h): 6.25 µg/mL (≈ 16 µM); MIC [28, 44]: 100 µg/mL (≈ 256 µM); MIC [29, 45]: 100 µg/mL (≈ 256 µM)
CNCC1CCC(N)C(OC2C(N)CC(OC)C(N(C)C(=O)CN)C2O)O1 (stereo not drawn) [Istamycin B, istamycin B]	0.78 µg/mL (≈ 2 µM)	–	–	0.78 µg/mL (≈ 2 µM)	1.56 µg/mL (≈ 4.01 µM)	0.78 µg/mL (≈ 2 µM)	1.56 µg/mL (≈ 4.01 µM)	3.13 µg/mL (≈ 8.04 µM)	0.78 µg/mL (≈ 2 µM)	–	3.13 µg/mL (≈ 8.04 µM)	3.13 µg/mL (≈ 8.04 µM)	3.13 µg/mL (≈ 8.04 µM)	50 µg/mL (≈ 128 µM)	25 µg/mL (≈ 64.2 µM)	50 µg/mL (≈ 128 µM)	> 100 µg/mL	50 µg/mL (≈ 128 µM)	> 100 µg/mL	> 100 µg/mL	MIC [2, 38]: 0.39 µg/mL (≈ 1 µM); MIC ([3]; AP01, S. aureus Ap 01, Muller-Hinton medium, 37° C., 18 hours): 1.56 µg/mL (≈ 4.01 µM); MIC ([4]; Staphylococcus epidermidis, S. epidermidis 109, Muller-Hinton medium, 37° C., 18 hours): 0.78 µg/mL (≈ 2 µM); MIC [5, 39]: 25 µg/mL (≈ 64.2 µM); MIC [7, 40]: 6.25 µg/mL (≈ 16 µM); MIC [8, 41]: 0.78 µg/mL (≈ 2 µM); MIC [9, 42]: 0.78 µg/mL (≈ 2 µM); MIC ([15]; Klebsiella Pneumoniae PCI 602, Muller-Hinton medium, 37° C., 18 hours): 1.56 µg/mL (≈ 4.01 µM); MIC [19, 43]: 0.78 µg/mL (≈ 2 µM); MIC ([20]; Proteus rettgeri GN311, Muller-Hinton medium, 37° C., 18 hours): 1.56 µg/mL (≈ 4.01 µM); MIC ([21]; Muller-Hinton medium, 37° C., 18 hours): 6.25 µg/mL (≈ 16 µM); MIC [22, 35]: 25 µg/mL (≈ 64.2 µM); MIC [24, 36]: 1.56 µg/mL (≈ 4.01 µM); MIC [25, 37]: 0.39 µg/mL (≈ 1 µM); MIC [28, 44]: 25 µg/mL (≈ 64.2 µM); MIC [29, 45]: 25 µg/mL (≈ 64.2 µM)
